Measurements reported in patent US20020035061A1, “COMPOSITIONS AND METHODS FOR TREATING INFECTIONS USING CATIONIC PEPTIDES ALONE OR IN COMBINATION WITH ANTIBIOTICS” (priority 1996, published 2002).
Where two headings read alike, the source gives them in different places.

Key:
Assay type in all cases: cell-based
S. epidermidis = S. epidermidis SE010
K. pneumoniae = test system: K. pneumoniae
S. maltophilia = test system: S. maltophilia
A. calcoaceticus = test system: A. calcoaceticus
E. cloacae = E. cloacae ECL007
S. aureus = test system: S. aureus
P. aeruginosa = test system: P. aeruginosa
E. coli = test system: E. coli
S. marcescens = test system: S. marcescens
E. faecalis = test system: E. faecalis
[1] = test system: vancomycin / teicoplanin resistant enterococci; assay: microbe, parasite or virus in culture; conditions: E. faecalis EFS008
[2] = test system: microorganisms with acquired resistance; assay: microbe, parasite or virus in culture; conditions: for Peptide MIC Alone: Gentamicin section; for FIC: peptide + Gentamicin
[3] = test system: inherently resistant microorganisms; assay: microbe, parasite or virus in culture; conditions: for Peptide MIC Alone: Amikacin section; for FIC: peptide + Amikacin
bacterial isolates = assay: microbe, parasite or virus in culture; conditions: for Peptide MIC Alone: 4. Gentamicin; for FIC: peptide + Gentamicin
[4] = S. maltophilia (strain line r400 not shown)

## ILRAPWWPWRRK [MBI 11H04CN]
S. epidermidis
  MIC: 16 µg/mL
K. pneumoniae; K. pneumoniae KP001
  MIC: 64 µg/mL
S. maltophilia; S. maltophilia SMA002
  MIC: >128 µg/mL
A. calcoaceticus; A. calcoaceticus AC002
  MIC: 8 µg/mL
E. cloacae
  MIC: >128 µg/mL
S. aureus; S. aureus SA014
  MIC: 4 µg/mL
S. aureus; S. aureus SA093
  MIC: 2 µg/mL
P. aeruginosa; P. aeruginosa PA004
  MIC: >128 µg/mL
E. coli; E. coli ECO005
  MIC: 32 µg/mL
S. marcescens; S. marcescens SMS003
  MIC: >128 µg/mL
E. faecalis; E. faecalis EFS001
  MIC: 2 µg/mL
E. faecalis; E. faecalis EFS008
  MIC: 8 µg/mL

## PRIWKPKWRLPKR [MBI 11J01CN]
S. epidermidis
  MIC: 32 µg/mL
K. pneumoniae; K. pneumoniae KP001
  MIC: >128 µg/mL
S. maltophilia; S. maltophilia SMA002
  MIC: >128 µg/mL
A. calcoaceticus; A. calcoaceticus AC002
  MIC: 4 µg/mL
E. cloacae
  MIC: >128 µg/mL
S. aureus; S. aureus SA014
  MIC: 16 µg/mL
S. aureus; S. aureus SA093
  MIC: 2 µg/mL
P. aeruginosa; P. aeruginosa PA004
  MIC: >128 µg/mL
E. coli; E. coli ECO005
  MIC: 64 µg/mL
S. marcescens; S. marcescens SMS003
  MIC: >128 µg/mL
E. faecalis; E. faecalis EFS001
  MIC: 128 µg/mL
E. faecalis; E. faecalis EFS008
  MIC: >128 µg/mL

## ILKKWPNNPNRRK [MBI 11CNW1]
K. pneumoniae; K. pneumoniae KP001
  MIC: 32 µg/mL
S. maltophilia; S. maltophilia SMA002
  MIC: 32 µg/mL
A. calcoaceticus; A. calcoaceticus AC002
  MIC: 8 µg/mL
E. cloacae
  MIC: 64 µg/mL
S. aureus; S. aureus SA010
  MIC: 4 µg/mL
P. aeruginosa; P. aeruginosa PA004
  MIC: 64 µg/mL
E. coli; E. coli ECO005
  MIC: 32 µg/mL
S. marcescens; S. marcescens SMS003
  MIC: >128 µg/mL
E. faecalis; E. faecalis EFS001
  MIC: 8 µg/mL

## ILKKNPNNPARRK [MBI 11CNX1]
K. pneumoniae; K. pneumoniae KP001
  MIC: >64 µg/mL
S. maltophilia; S. maltophilia SMA002
  MIC: >64 µg/mL
A. calcoaceticus; A. calcoaceticus AC001
  MIC: >64 µg/mL
E. cloacae
  MIC: >64 µg/mL
S. aureus; S. aureus SA006
  MIC: 2 µg/mL
P. aeruginosa; P. aeruginosa PA024
  MIC: >64 µg/mL
E. coli; E. coli ECO005
  MIC: 64 µg/mL
S. marcescens; S. marcescens SMS003
  MIC: >64 µg/mL
E. faecalis; E. faecalis EFS004
  MIC: 16 µg/mL

## KKAAAKAAAAAKAAWAAKAAAKKKK [Deber A2KA2, reference compound]
[1]
  Amikacin MIC + Peptide: 8 µg/mL
  Peptide MIC + Amikacin: 16 µg/mL
[1]; Amikacin section
  Peptide MIC Alone: >128 µg/mL
[1]; peptide + Amikacin
  FIC: 0.19
[2]; A. calcoaceticus AC001
  Gentamicin MIC + Peptide: 4 µg/mL
  Peptide MIC + Gentamicin: 16 µg/mL
  Peptide MIC Alone: >128 µg/mL
  FIC: 0.56
[2]; P. aeruginosa PA041
  Gentamicin MIC + Peptide: 4 µg/mL
  Peptide MIC + Gentamicin: 64 µg/mL
  Peptide MIC Alone: >128 µg/mL
  FIC: 0.50
[3]; A. baumannii
  Peptide MIC + Amikacin: 32 µg/mL
  Peptide MIC Alone: >128 µg/mL
  FIC: 0.63
[3]; S. aureus MRSA
  Peptide MIC + Amikacin: 8 µg/mL
  Peptide MIC Alone: 16 µg/mL
  FIC: 0.50
Bacterial isolates; A. baumannii ABI001
  Peptide MIC Alone: >128 µg/mL
  Gentamicin MIC + Peptide: 32 µg/mL
  Peptide MIC + Gentamicin: 8 µg/mL
  FIC: 0.53
Bacterial isolates; A. baumannii ABI002
  Peptide MIC Alone: >128 µg/mL
  Gentamicin MIC + Peptide: 32 µg/mL
  Peptide MIC + Gentamicin: 0.125 µg/mL
  FIC: 0.50
Bacterial isolates; A. calcoaceticus AC001
  Peptide MIC Alone: >128 µg/mL
  Gentamicin MIC + Peptide: 4 µg/mL
  Peptide MIC + Gentamicin: 16 µg/mL
  FIC: 0.56
Bacterial isolates; P. aeruginosa PA022
  Peptide MIC Alone: >128 µg/mL
  Gentamicin MIC + Peptide: 16 µg/mL
  Peptide MIC + Gentamicin: 4 µg/mL
  FIC: 0.52
Bacterial isolates; P. aeruginosa PA041
  Peptide MIC Alone: >128 µg/mL
  Gentamicin MIC + Peptide: 8 µg/mL
  Peptide MIC + Gentamicin: 0.125 µg/mL
  FIC: 0.50
Bacterial isolates; [4]
  Peptide MIC Alone: >128 µg/mL
  Gentamicin MIC + Peptide: 64 µg/mL
  Peptide MIC + Gentamicin: 0.125 µg/mL
  FIC: 0.50
Bacterial isolates; S. maltophilia SMA017
  Peptide MIC Alone: >128 µg/mL
  Gentamicin MIC + Peptide: 64 µg/mL
  Peptide MIC + Gentamicin: 0.125 µg/mL
  FIC: 0.50

## ILRNPNNPNRRK [MBI 11B7CNF12]
K. pneumoniae; K. pneumoniae strain KP001
  MIC: 16 µg/mL
S. maltophilia; S. maltophilia strain SMA002
  MIC: 64 µg/mL
A. calcoaceticus; A. calcoaceticus strain AC002
  MIC: 4 µg/mL
P. aeruginosa; P. aeruginosa strain PA004
  MIC: >128 µg/mL
E. coli; E. coli strain ECO005
  MIC: 16 µg/mL
S. marcescens; S. marcescens strain SMS003
  MIC: >128 µg/mL
E. faecalis; E. faecalis strain EFS001
  MIC: 2 µg/mL

## ILPWKWPWWPWRR [MBI 10]
K. pneumoniae; K. pneumoniae KP001
  MIC: 128 µg/mL
S. maltophilia; S. maltophilia SMA001
  MIC: 128 µg/mL
A. calcoaceticus; A. calcoaceticus AC001
  MIC: 128 µg/mL
S. aureus; S. aureus SA007
  MIC: 2 µg/mL
P. aeruginosa; P. aeruginosa PA003
  MIC: >128 µg/mL
E. coli; E. coli ECO002
  MIC: 128 µg/mL
S. marcescens; S. marcescens SMS003
  MIC: >128 µg/mL
E. faecalis; E. faecalis EFS004
  MIC: 8 µg/mL
